In ChEMBL document CHEMBL1201862, “PubChem BioAssay data set” (2004):
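Interpolation was linear, between the two tested concentrations surrounding the appropriate level; five concentrations were tested over 48 hours in 96-well plates. GI50 is the concentration that inhibits growth by half.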 Active and inactive are the calls of the source. Cut-off read from the data, not from the text of the source: active = GI50 up to about 1.1 µM and inactive = higher.

Key:
Experiment in all cases: NCI tumour cell line growth inhibition, 48 h
SK-MEL-5 = tested on: SK-MEL-5
786-0 = tested on: 786-0
A498 = tested on: A498
KM12 = tested on: KM12
HCT-15 = tested on: HCT-15
MOLT-4 = tested on: MOLT-4
UO-31 = tested on: UO-31
XF498 = tested on: XF498
SF-295 = tested on: SF-295
UACC-62 = tested on: UACC-62
SK-MEL-2 = tested on: SK-MEL-2
M14 = tested on: M14
ACHN = tested on: ACHN
RXF 393 = tested on: RXF 393
CCRF-CEM = tested on: CCRF-CEM
SNB-19 = tested on: SNB-19
EKVX = tested on: EKVX
HL-60 = tested on: HL-60
SK-MEL-28 = tested on: SK-MEL-28
HCT-116 = tested on: HCT-116
NCI-H460 = tested on: NCI-H460
NCI-H522 = tested on: NCI-H522
HOP-92 = tested on: HOP-92
LXFL 529 = tested on: LXFL 529
SK-OV-3 = tested on: SK-OV-3
COLO 205 = tested on: COLO 205
M19-MEL = tested on: M19-MEL
K562 = tested on: K562
SW-620 = tested on: SW-620
CAKI-1 = tested on: CAKI-1
DLD-1 = tested on: DLD-1
DMS-273 = tested on: DMS-273
KM-20L2 = tested on: KM-20L2
U-251 = tested on: U-251
SR = tested on: SR
UACC-257 = tested on: UACC-257
RXF 631 = tested on: RXF 631
SF-268 = tested on: SF-268
SNB-78 = tested on: SNB-78
OVCAR-3 = tested on: OVCAR-3
A549 = tested on: A549
SN12C = tested on: SN12C
RPMI-8226 = tested on: RPMI-8226
DMS-114 = tested on: DMS-114
NCI-H23 = tested on: NCI-H23
LOX IMVI = tested on: LOX IMVI
OVCAR-4 = tested on: OVCAR-4
HOP-62 = tested on: HOP-62
TK-10 = tested on: TK-10
SNB-75 = tested on: SNB-75
OVCAR-8 = tested on: OVCAR-8
Malme-3M = tested on: Malme-3M
HT-29 = tested on: HT-29
HCC 2998 = tested on: HCC 2998
HOP-18 = tested on: HOP-18
OVCAR-5 = tested on: OVCAR-5
IGROV-1 = tested on: IGROV-1
SF-539 = tested on: SF-539
NCI-H226 = tested on: NCI-H226

c1ccc(CN(Cn2cccn2)Cn2cccn2)nc1
GI50 (SK-MEL-5): > 100 µM (inactive) | GI50 (786-0): > 100 µM (inactive) | GI50 (A498): > 100 µM (inactive) | GI50 (KM12): > 100 µM (inactive) | GI50 (HCT-15): > 100 µM | GI50 (MOLT-4): > 100 µM (inactive) | GI50 (UO-31): > 100 µM (inactive) | GI50 (XF498): > 100 µM (inactive) | GI50 (SF-295): > 100 µM (inactive) | GI50 (UACC-62): 43.8 µM (inactive) | GI50 (SK-MEL-2): > 100 µM (inactive) | GI50 (M14): > 100 µM (inactive) | GI50 (ACHN): > 100 µM (inactive) | GI50 (RXF 393): > 100 µM (inactive) | GI50 (CCRF-CEM): > 100 µM (inactive) | GI50 (SNB-19): > 100 µM (inactive) | GI50 (EKVX): > 100 µM (inactive) | GI50 (HL-60): 47.8 µM (inactive) | GI50 (SK-MEL-28): > 100 µM (inactive) | GI50 (HCT-116): 61.5 µM (inactive) | GI50 (NCI-H460): > 100 µM (inactive) | GI50 (NCI-H522): > 100 µM (inactive) | GI50 (HOP-92): > 100 µM (inactive) | GI50 (LXFL 529): > 100 µM (inactive) | GI50 (SK-OV-3): > 100 µM (inactive) | GI50 (COLO 205): > 100 µM (inactive) | GI50 (M19-MEL): > 100 µM (inactive) | GI50 (K562): > 100 µM (inactive) | GI50 (SW-620): > 100 µM (inactive) | GI50 (CAKI-1): > 100 µM (inactive) | GI50 (DLD-1): 87.3 µM (inactive) | GI50 (DMS-273): 61.7 µM (inactive) | GI50 (KM-20L2): > 100 µM (inactive) | GI50 (U-251): > 100 µM (inactive) | GI50 (SR): > 100 µM (inactive) | GI50 (UACC-257): > 100 µM (inactive) | GI50 (RXF 631): > 100 µM (inactive) | GI50 (SF-268): > 100 µM (inactive) | GI50 (SNB-78): > 100 µM (inactive) | GI50 (OVCAR-3): > 100 µM (inactive) | GI50 (A549): > 100 µM (inactive) | GI50 (SN12C): > 100 µM (inactive) | GI50 (RPMI-8226): 29.4 µM (inactive) | GI50 (DMS-114): 78.7 µM (inactive) | GI50 (NCI-H23): > 100 µM (inactive) | GI50 (LOX IMVI): > 100 µM (inactive) | GI50 (OVCAR-4): > 100 µM (inactive) | GI50 (HOP-62): > 100 µM (inactive) | GI50 (TK-10): > 100 µM (inactive) | GI50 (SNB-75): > 100 µM (inactive) | GI50 (OVCAR-8): > 100 µM (inactive)

O=C1OC(c2ccc(Cl)c3ccccc23)c2ccccc21 (stereo not given)
GI50 (SK-MEL-5): > 100 µM (inactive) | GI50 (786-0): 67.6 µM (inactive) | GI50 (A498): > 100 µM (inactive) | GI50 (KM12): > 100 µM (inactive) | GI50 (HCT-15): 90.4 µM | GI50 (Malme-3M): > 100 µM (inactive) | GI50 (MOLT-4): 77.6 µM (inactive) | GI50 (UO-31): > 100 µM (inactive) | GI50 (XF498): > 100 µM (inactive) | GI50 (SF-295): 70.5 µM (inactive) | GI50 (UACC-62): 63.2 µM (inactive) | GI50 (SK-MEL-2): > 100 µM (inactive) | GI50 (M14): > 100 µM (inactive) | GI50 (ACHN): > 100 µM (inactive) | GI50 (RXF 393): 26.1 µM (inactive) | GI50 (CCRF-CEM): 91.6 µM (inactive) | GI50 (HT-29): 55.3 µM (inactive) | GI50 (SNB-19): > 100 µM (inactive) | GI50 (HCC 2998): 91.2 µM (inactive) | GI50 (EKVX): > 100 µM (inactive) | GI50 (HL-60): > 100 µM (inactive) | GI50 (SK-MEL-28): > 100 µM (inactive) | GI50 (HCT-116): 91.2 µM (inactive) | GI50 (HOP-18): > 100 µM (inactive) | GI50 (NCI-H460): > 100 µM (inactive) | GI50 (NCI-H522): > 100 µM (inactive) | GI50 (HOP-92): > 100 µM (inactive) | GI50 (SK-OV-3): > 100 µM (inactive) | GI50 (COLO 205): > 100 µM (inactive) | GI50 (M19-MEL): > 100 µM (inactive) | GI50 (K562): 55.7 µM (inactive) | GI50 (CAKI-1): 75.5 µM (inactive) | GI50 (OVCAR-5): > 100 µM (inactive) | GI50 (IGROV-1): > 100 µM (inactive) | GI50 (KM-20L2): 64.3 µM (inactive) | GI50 (U-251): > 100 µM (inactive) | GI50 (SF-539): > 100 µM (inactive) | GI50 (SR): > 100 µM (inactive) | GI50 (UACC-257): > 100 µM (inactive) | GI50 (RXF 631): > 100 µM (inactive) | GI50 (SF-268): > 100 µM (inactive) | GI50 (SNB-78): > 100 µM (inactive) | GI50 (A549): 76.7 µM (inactive) | GI50 (SN12C): > 100 µM (inactive) | GI50 (RPMI-8226): > 100 µM (inactive) | GI50 (DMS-114): 71.3 µM (inactive) | GI50 (NCI-H23): > 100 µM (inactive) | GI50 (OVCAR-4): 63.5 µM (inactive) | GI50 (HOP-62): > 100 µM (inactive) | GI50 (SNB-75): 6.07 µM (inactive) | GI50 (OVCAR-8): > 100 µM (inactive)

Cc1ccccc1/N=N/C(C(=O)c1ccccc1)C(=O)c1ccccc1
GI50 (SK-MEL-5): 16.6 µM (inactive) | GI50 (786-0): 25.4 µM (inactive) | GI50 (A498): 39 µM (inactive) | GI50 (KM12): 29.7 µM (inactive) | GI50 (HCT-15): 17.1 µM | GI50 (Malme-3M): 31.7 µM (inactive) | GI50 (MOLT-4): 13.4 µM (inactive) | GI50 (UO-31): 17.2 µM (inactive) | GI50 (XF498): 19.5 µM (inactive) | GI50 (SF-295): 23.8 µM (inactive) | GI50 (UACC-62): 20.9 µM (inactive) | GI50 (SK-MEL-2): 19.7 µM (inactive) | GI50 (M14): 18.1 µM (inactive) | GI50 (ACHN): 27.4 µM (inactive) | GI50 (CCRF-CEM): 9.46 µM (inactive) | GI50 (HT-29): 28 µM (inactive) | GI50 (SNB-19): 18.9 µM (inactive) | GI50 (HCC 2998): 40.8 µM (inactive) | GI50 (EKVX): 25.2 µM (inactive) | GI50 (HL-60): 11.9 µM (inactive) | GI50 (SK-MEL-28): 24 µM (inactive) | GI50 (HCT-116): 16.1 µM (inactive) | GI50 (NCI-H522): 15.7 µM (inactive) | GI50 (HOP-92): 17.9 µM (inactive) | GI50 (LXFL 529): 13.1 µM (inactive) | GI50 (SK-OV-3): 41.6 µM (inactive) | GI50 (COLO 205): 33.7 µM (inactive) | GI50 (M19-MEL): 17.5 µM (inactive) | GI50 (K562): 22.6 µM (inactive) | GI50 (SW-620): 25.9 µM (inactive) | GI50 (CAKI-1): 34.1 µM (inactive) | GI50 (NCI-H226): 11.7 µM (inactive) | GI50 (DLD-1): 30.8 µM (inactive) | GI50 (OVCAR-5): 31.1 µM (inactive) | GI50 (DMS-273): 18.3 µM (inactive) | GI50 (IGROV-1): 44.2 µM (inactive) | GI50 (KM-20L2): 27.7 µM (inactive) | GI50 (U-251): 16 µM (inactive) | GI50 (SF-539): 23.8 µM (inactive) | GI50 (UACC-257): 26.7 µM (inactive) | GI50 (RXF 631): 34.9 µM (inactive) | GI50 (SF-268): 23.3 µM (inactive) | GI50 (OVCAR-3): 24.9 µM (inactive) | GI50 (A549): 24.9 µM (inactive) | GI50 (SN12C): 20 µM (inactive) | GI50 (RPMI-8226): 16.1 µM (inactive) | GI50 (DMS-114): 19.4 µM (inactive) | GI50 (NCI-H23): 18.3 µM (inactive) | GI50 (OVCAR-4): 18.7 µM (inactive) | GI50 (HOP-62): 23.8 µM (inactive) | GI50 (TK-10): 44.8 µM (inactive) | GI50 (SNB-75): 19.1 µM (inactive) | GI50 (OVCAR-8): 31.8 µM (inactive)
